Source: patent publication US12036291B2, “Probes for imaging huntingtin protein” (CHDI Foundation, Inc., priority 2014, dated 2024)

Target: T1, Q46 protein aggregates (Homo sapiens, UniProt P42858)
T1 construct: fused on or other part: GST at the N-terminus, cut off with thrombin before aggregation
Assay: Q46 Radioligand Binding Assay (RBA), displacement of [3H3]MK-3328
Details: 5 μM Q46 protein aggregates, 10 nM ligand [3H3]MK-3328, 60 minutes at 37° C.
Method: Q46 Radioligand Binding Assay
For radioligand binding assays (RBA) GST-Q46 protein was generated based on a previous publication (Scherzinger et al. Cell, Vol. 90, 549-558, Aug. 8, 1997). For experiments 33 μM GST-Q46 was incubated with 150 μg/ml thrombin in assay buffer (150 mM NaCl, 50 mM Tris pH 8.0) and 2 mM CaCl2 for 16 hr at 37° C. Aggregated Q46 was pelleted by centrifugation for 5 min at 13,000 rpm in a bench top centrifuge and re-dissolved in the same volume of assay buffer. Test compounds were prepared by titration in DMSO at 11 concentrations from 33 μM to 1 nM. For the RBA, Q46 protein aggregates and test compounds were pre-incubated in assay buffer for 20 min at room temperature, in 140 μL/well in a 96-well plate (pp, round bottom). Then, ligand was added in 10 μL/well and incubated for 60 minutes at 37° C. Final assay concentrations were […] test compound, 5 μM Q46 protein (equivalent monomer concentration) and 10 nM ligand [^3H3]MK-3328 (Harrision et al., ACS Med Chem. Lett., 2 (2011), pp 498-502). Samples were transferred onto GF/B filter plates and washed 2× with 200 μL PBS using a Filtermate Harvester. After drying filter plates for 1 hour at 37° C., the back of the plates was sealed with foil and 30 μL/well scintillation fluid (Packard MicroScint 40) was added, incubated for 15 min in the dark and counted in a TopCount reader. For analysis, replicate data from independent assay plates were normalized towards 0% and 100% inhibition using control wells of vehicle (0% inhibition) and 3 μM unlabelled MK-3328 (100% inhibition). IC50 values were determined with a sigmoidal inhibition model with four variables (top, bottom, slope, IC50) in a global fit using the normalized replicate data.

T1 sequence (P42858 with tags, fused parts or gaps with the stated changes, form open): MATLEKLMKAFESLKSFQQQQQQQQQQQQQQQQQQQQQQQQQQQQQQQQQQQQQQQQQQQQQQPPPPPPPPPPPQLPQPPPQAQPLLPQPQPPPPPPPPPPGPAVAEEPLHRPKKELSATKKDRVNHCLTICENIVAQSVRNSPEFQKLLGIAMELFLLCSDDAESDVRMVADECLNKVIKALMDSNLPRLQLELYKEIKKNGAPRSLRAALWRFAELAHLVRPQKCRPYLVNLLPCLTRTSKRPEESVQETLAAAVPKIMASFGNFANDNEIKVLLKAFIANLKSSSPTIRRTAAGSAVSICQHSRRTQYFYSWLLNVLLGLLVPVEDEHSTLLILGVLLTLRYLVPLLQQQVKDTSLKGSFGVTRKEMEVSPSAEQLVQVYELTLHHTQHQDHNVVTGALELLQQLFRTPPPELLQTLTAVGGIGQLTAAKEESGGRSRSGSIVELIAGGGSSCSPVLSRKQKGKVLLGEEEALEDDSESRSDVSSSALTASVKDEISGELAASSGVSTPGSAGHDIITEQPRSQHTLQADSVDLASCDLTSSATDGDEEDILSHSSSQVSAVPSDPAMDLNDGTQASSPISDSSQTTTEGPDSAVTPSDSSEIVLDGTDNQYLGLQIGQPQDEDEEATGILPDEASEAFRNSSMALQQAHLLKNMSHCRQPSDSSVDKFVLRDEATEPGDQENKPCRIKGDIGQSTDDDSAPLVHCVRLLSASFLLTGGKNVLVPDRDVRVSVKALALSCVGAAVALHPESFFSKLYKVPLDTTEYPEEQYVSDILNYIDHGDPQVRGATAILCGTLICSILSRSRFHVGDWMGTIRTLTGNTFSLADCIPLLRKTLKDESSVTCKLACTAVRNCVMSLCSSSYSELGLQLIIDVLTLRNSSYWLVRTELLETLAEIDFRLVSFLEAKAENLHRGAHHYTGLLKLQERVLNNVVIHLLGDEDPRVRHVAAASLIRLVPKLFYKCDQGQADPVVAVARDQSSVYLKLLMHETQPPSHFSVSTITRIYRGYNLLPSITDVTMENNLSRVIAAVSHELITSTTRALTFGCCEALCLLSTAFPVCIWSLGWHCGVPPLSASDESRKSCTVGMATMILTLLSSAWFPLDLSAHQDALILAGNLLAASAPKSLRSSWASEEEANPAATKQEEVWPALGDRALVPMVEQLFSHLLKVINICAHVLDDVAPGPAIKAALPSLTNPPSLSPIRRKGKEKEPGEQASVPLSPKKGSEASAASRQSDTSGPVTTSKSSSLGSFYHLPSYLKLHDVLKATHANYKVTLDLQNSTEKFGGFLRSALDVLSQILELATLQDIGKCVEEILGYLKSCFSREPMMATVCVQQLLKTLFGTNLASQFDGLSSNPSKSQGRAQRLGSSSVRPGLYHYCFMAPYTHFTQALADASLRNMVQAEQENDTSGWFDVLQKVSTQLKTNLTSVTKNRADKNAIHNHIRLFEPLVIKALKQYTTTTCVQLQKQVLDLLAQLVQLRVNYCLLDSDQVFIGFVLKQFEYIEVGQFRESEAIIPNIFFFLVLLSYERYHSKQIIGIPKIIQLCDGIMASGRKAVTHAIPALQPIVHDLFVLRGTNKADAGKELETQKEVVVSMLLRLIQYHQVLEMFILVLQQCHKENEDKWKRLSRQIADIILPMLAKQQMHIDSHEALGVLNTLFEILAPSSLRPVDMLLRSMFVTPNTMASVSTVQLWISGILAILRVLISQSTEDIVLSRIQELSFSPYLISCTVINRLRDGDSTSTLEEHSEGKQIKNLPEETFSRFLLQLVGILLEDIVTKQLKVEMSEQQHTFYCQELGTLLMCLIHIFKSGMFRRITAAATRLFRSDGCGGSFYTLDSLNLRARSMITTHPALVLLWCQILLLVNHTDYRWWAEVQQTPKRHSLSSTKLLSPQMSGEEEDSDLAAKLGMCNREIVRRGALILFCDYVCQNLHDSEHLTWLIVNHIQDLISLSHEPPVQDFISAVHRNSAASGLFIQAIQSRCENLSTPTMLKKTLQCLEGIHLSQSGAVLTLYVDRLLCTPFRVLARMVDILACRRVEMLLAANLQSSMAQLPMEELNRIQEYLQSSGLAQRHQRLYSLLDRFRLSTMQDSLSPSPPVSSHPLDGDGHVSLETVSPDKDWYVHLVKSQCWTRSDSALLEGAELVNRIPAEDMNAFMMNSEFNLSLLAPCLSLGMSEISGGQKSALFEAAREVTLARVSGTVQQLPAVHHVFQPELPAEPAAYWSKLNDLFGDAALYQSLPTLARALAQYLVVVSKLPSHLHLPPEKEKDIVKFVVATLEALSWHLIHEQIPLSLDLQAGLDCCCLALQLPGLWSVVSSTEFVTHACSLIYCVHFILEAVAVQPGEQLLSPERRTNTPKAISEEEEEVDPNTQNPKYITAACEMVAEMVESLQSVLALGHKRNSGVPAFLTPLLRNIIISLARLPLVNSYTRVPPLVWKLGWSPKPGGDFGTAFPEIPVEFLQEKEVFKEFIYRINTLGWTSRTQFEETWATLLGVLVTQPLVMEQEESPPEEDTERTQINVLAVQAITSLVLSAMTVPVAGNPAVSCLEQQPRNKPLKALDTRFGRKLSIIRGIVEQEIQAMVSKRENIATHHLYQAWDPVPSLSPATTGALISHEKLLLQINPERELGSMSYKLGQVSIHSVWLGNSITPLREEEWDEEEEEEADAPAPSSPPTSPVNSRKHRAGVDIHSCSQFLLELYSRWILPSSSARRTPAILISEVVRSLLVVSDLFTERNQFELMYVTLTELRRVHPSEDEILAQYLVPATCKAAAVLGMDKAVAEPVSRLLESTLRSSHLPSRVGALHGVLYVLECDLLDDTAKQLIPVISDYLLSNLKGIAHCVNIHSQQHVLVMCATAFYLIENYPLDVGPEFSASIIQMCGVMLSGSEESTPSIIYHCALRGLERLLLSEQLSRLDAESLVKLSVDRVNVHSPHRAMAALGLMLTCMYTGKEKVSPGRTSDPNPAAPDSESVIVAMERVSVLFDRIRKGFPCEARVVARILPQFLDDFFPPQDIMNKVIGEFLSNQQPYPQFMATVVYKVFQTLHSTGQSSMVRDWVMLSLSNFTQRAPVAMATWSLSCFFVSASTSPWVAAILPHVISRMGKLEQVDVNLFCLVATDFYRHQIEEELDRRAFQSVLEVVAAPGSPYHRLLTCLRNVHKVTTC

Compound | IC50 [µM]
COc1ccc2c(c1)CN(c1ccncc1C#N)C2 [4-(5-methoxy-2,3-dihydro-1H-isoindol-2-yl)pyridine-3-carbonitrile] | < 0.1
COc1ccc(COc2ccc3c(c2)CN(c2ncccc2C#N)C3)nc1 [2-{5-[(5-methoxypyridin-2-yl)methoxy]-2,3-dihydro-1H-isoindol-2-yl}pyridine-3-carbonitrile] | < 0.1
COc1ccc(COc2ccc3c(c2)CN(c2ccc(=O)n(C)n2)C3)nc1 [6-{5-[(5-methoxypyridin-2-yl)methoxy]-2,3-dihydro-1H-isoindol-2-yl}-2-methyl-2,3-dihydropyridazin-3-one] | < 0.1
N#Cc1cncnc1N1Cc2ccc(OCc3ccccc3)cc2C1 [4-[5-(benzyloxy)-2,3-dihydro-1H-isoindol-2-yl]pyrimidine-5-carbonitrile] | < 0.1
N#Cc1cncnc1N1Cc2ccc(OCc3ccc(O)cn3)cc2C1 [4-{5-[(5-hydroxypyridin-2-yl)methoxy]-2,3-dihydro-1H-isoindol-2-yl}pyrimidine-5-carbonitrile] | < 0.1
COc1cnc(COc2ccc3c(c2)CN(c2ccncc2)C3)cn1 [5-[(5-methoxypyrazin-2-yl)methoxy]-2-(pyridin-4-yl)-2,3-dihydro-1H-isoindole] | < 0.1
COc1ccc2c(c1)CN(c1ncncc1C#N)C2 [4-(5-methoxy-2,3-dihydro-1H-isoindol-2-yl)pyrimidine-5-carbonitrile] | < 0.1
N#Cc1cnccc1N1Cc2ccc(OCc3ccc(O)cn3)cc2C1 [4-{5-[(5-hydroxypyridin-2-yl)methoxy]-2,3-dihydro-1H-isoindol-2-yl}pyridine-3-carbonitrile] | < 0.1
COc1ccc2c(c1)CN(c1ncccc1C#N)C2 [2-(5-methoxy-2,3-dihydro-1H-isoindol-2-yl)pyridine-3-carbonitrile] | < 0.1
COc1ccc(COc2ccc3c(c2)CN(c2ncncc2C#N)C3)nc1 [4-{5-[(5-methoxypyridin-2-yl)methoxy]-2,3-dihydro-1H-isoindol-2-yl}pyrimidine-5-carbonitrile] | < 0.1
COc1ccc(COc2ccc3c(c2)CN(c2ccncc2)C3=O)nc1 [5-[(5-methoxypyridin-2-yl)methoxy]-2-(pyridin-4-yl)-2,3-dihydro-1H-isoindol-1-one] | < 0.1
COc1ccc(COc2ccc3c(c2)CN(c2ccncc2C#N)C3)nc1 [4-{5-[(5-methoxypyridin-2-yl)methoxy]-2,3-dihydro-1H-isoindol-2-yl}pyridine-3-carbonitrile] | < 0.1
N#Cc1cccnc1N1Cc2ccc(OCc3cncnc3)cc2C1 [2-[5-(pyrimidin-5-ylmethoxy)-2,3-dihydro-1H-isoindol-2-yl]pyridine-3-carbonitrile] | < 0.1
N#Cc1cnccc1N1Cc2ccc(OCc3cncnc3)cc2C1 [4-[5-(pyrimidin-5-ylmethoxy)-2,3-dihydro-1H-isoindol-2-yl]pyridine-3-carbonitrile] | < 0.1

Tested on: recombinant tau and amyloid β1-42 (Aβ1-42) aggregates
Assay: not given
Details: higher affinity for the tau aggregates than Aβ1-42 aggregates; cited from earlier work

Compound | ratio of Kd values (affinity for tau aggregates versus Aβ1-42 aggregates)
CN(C)c1ccc(/C=C/c2nc3ccc(I)cc3[nH]2)cc1 [SBIM-3, 4-[(E)-2-(6-iodo-1H-benzimidazol-2-yl)ethenyl]-N,N-di methyl aniline] | 2.73

Tested on: NFT in sections of AD brain tissue
Assay: not given
Details: in vitro autoradiography ([125I]SBIM-3) and fluorescent staining (SBIM-3); cited from earlier work

Compound | binding to NFT in sections of AD brain tissue
CN(C)c1ccc(/C=C/c2nc3ccc(I)cc3[nH]2)cc1 [SBIM-3, 4-[(E)-2-(6-iodo-1H-benzimidazol-2-yl)ethenyl]-N,N-di methyl aniline] | bound NFT in sections of AD brain tissue
